# Experimental data taken from patent publication US20210395689A1, “METHOD FOR PRODUCING INSULIN-PRODUCING CELLS” (KATAOKA CORPORATION, priority 2018, published 2021).
# Legend:
# human fibroblasts = assay: Direct induction from human fibroblasts into insulin-producing cells, amount of insulin secreted; type: cell-based; conditions: culturing for 14 days in differentiation induction medium; 3 μM CHIR99021, 7.5 μM forskolin, 1.5 μM BRD7389, 5 μM LY294002; BI-D1870 5 μM or 10 μM; FIGS. 1 to 4
# Description: The insulin-producing cell produced by the present invention process can be detected, identified, and isolated using, for example, a morphological change of a cell, a characteristic property of an insulin-producing cell, or a specific marker (e.g., an anti-insulin antibody). Moreover, the secretory capacity of the obtained insulin-producing cell can also be evaluated by quantifying the amount of secreted insulin using sandwich ELISA.
# The human fibroblasts used as the material were purchased from DS Pharma Biomedical Co., Ltd. The fibroblasts are derived from human skin.
# Human fibroblasts were seeded in 35-mm dishes coated with gelatin (Cat #: 190-15805, manufactured by Wako Pure Chemical Industries, Ltd.) at 5×10^4 cells/dish, and cultured in DMEM medium (manufactured by Gibco) supplemented with 10% fetal bovine serum (FBS), 100 U/mL penicillin, and 100 μg/mL streptomycin until confluent under conditions of 37° C. and 5% CO2. Note that DMEM refers to Dulbecco's Modified Eagle's Medium.
# The medium of dishes of the human fibroblasts described above was replaced with the differentiation induction medium described below. […]
# pancreatic α-cells = conditions: reported in Non-Patent Document 7; cited from earlier work
structure (smiles),measurement,setting,value
O=C1c2ccccc2-c2c(NCCc3ccccc3)c(=O)[nH]c3cccc1c23 [BRD7389],insulin secretion by insulin-producing cells directly differentiated from human fibroblasts,human fibroblasts,a considerable amount of insulin secretion was observed
same,expression of insulin genes in pancreatic α-cells,pancreatic α-cells,capacity of activating the expression of insulin genes
